Laboratory results published in patent US10702492B2, “PPARα activator, pharmaceutical composition, food and drink, food additive, supplement and method of manufacturing the same” (Marukome Co., Ltd., priority 2015, dated 2020).
“Also recorded” adds a separate entry of the source.

Columns and labels:
[1] = test system: mouse primary-cultured hepatocytes; test: TG accumulation in mouse primary-cultured hepatocytes (TG kit); assay type: cell-based; settings: 24 hours, 500 μM oleic acid medium, vs. negative control (CT+), FIG. 8
Protocol: The effect on the accumulation of triglyceride ([…]) of a koji extract was evaluated by using mouse primary-cultured hepatocytes and koji extract 1 used in Example 1.
Primary-cultured hepatocytes were prepared from hepatocytes separated from C57BL/6J mice (6 week old, male), and were seeded in a 12-well plate (2×10^5 cells/ml). After confirming the attachment of the cells to the plate at 3-5 hours after the seeding, the medium was replaced with a serum-free medium (low-glucose DMEM, 1% P/S, 500 μM oleic acid, 20 μg/mL BSA). At this time, koji extract 1 was added in an amount of 0.1 mg/mL or 1 mg/mL. As a positive control, a medium added with GW-7647 ([…]) was used.
At 24 hours after the addition, the amount of TG accumulation of the primary-cultured hepatocytes was measured with a TG kit (Wako). […] The error bar refers to SE (n=4), * is p<0.05, ** is p<0.01 (vs. control).
The effect on triglyceride (TG) accumulation of 9-HODE:10E,12E was evaluated by using mouse primary-cultured hepatocytes.
Primary-cultured hepatocytes were prepared from hepatocytes separated from C57BL/6J mice (6 week old, male), and seeded in a 12-well plate (2×10^5 cells/ml). […]
At 24 hours after the addition, the accumulation amount of TG was measured by using a TG kit (Wako). […]

human PPARα = target: T1, human PPARα (Homo sapiens, UniProt Q07869); test: PPARα luciferase assay; assay type: cell-based; settings: CV-1 cells, 1.3 μM, 24 hours after the addition; FIG. 6 and FIG. 7
T1 construct: expressed in transfected cells; host or cells: CV-1 cells
T1 sequence (Q07869 239-466 limits assumed): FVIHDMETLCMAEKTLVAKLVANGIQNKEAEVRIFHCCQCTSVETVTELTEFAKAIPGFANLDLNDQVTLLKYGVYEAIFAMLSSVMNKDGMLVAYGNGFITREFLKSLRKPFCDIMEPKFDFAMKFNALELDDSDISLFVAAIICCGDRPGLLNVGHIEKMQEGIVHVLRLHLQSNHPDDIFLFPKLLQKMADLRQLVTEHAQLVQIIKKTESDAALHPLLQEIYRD
Protocol: The PPARα activity of koji extract 1 was evaluated by PPARα luciferase assay. The assay was performed by a method as previously described (T. Goto et al., Biochemical and Biophysical Research Communications 337(2005) 440-445).
Specifically, CV-1 cells that were transfected with p4×UASg-tk-luc (reporter plasmid), pM-hPPARα (expression vector for DNA-binding domain of GAL4 and ligand-binding domain of human PPARα for chimeric protein), pRL-CMV (internal control for normalizing transfection efficiency) and Lipofectamine™ Reagent. The cells were cultured in a DMEM culture medium containing 10% FBS and penicillin/streptomycin (10 mg/mL).
The CV-1 cells were transfected with the vector with Lipofectamine and cultured for 24 hours. Then, the medium was replaced with a medium added with 0.1 mg/mL, 0.5 mg/mL or 5 mg/mL of the concentrated koji extract 1 with 70% ethanol (dilution rate: 50 times), respectively, and the CV-1 cells were further cultured for 24 hours. The measurement of luciferase activity was performed by using Dual-Luciferase(R) Reporter Assay System (Promega) and a luminometer (MicroLumat Plus, Berthold Japan Co., Ltd.) according to the protocols of the reagent and the luminometer.
As a positive control, a medium added with […] of a known PPARα agonist, GW-7647 (2-[4-[2-[1-(4-cyclohexylbutyl)-3-cyclohexylureido]ethyl]phenylthio]isobutyric acid) was used. […]

CCCCC/C=C/C=C/C(O)CCCCCCCC(=O)O (stereo not drawn) [9-HODE:10E,12E, 9-hydroxy-10,12-octadecadienoic acid]
accumulation amount of TG ([1]; 3 μM): significant decrease | accumulation amount of TG ([1]; 10 μM): significant decrease | PPARα activity (human PPARα): remarkably high; also recorded: relatively high
